Target: IN-GCN2 interaction (6xHis-IN / GST-GCN2) (UniProt P04585+Q9P2K8)
Test: biochemical
Type: binding, HIV-1 IN; human GCN2
Conditions: for IN-GCN2 interaction (%): screen, single dose 100 µM, single replicate, residual AlphaLISA signal normalized to DMSO control; for AlphaLISA signal in dose-response: compared to DMSO

Sequence of IN-GCN2 interaction (6xHis-IN / GST-GCN2) (Q9P2K8 192-1024, other chains not shown): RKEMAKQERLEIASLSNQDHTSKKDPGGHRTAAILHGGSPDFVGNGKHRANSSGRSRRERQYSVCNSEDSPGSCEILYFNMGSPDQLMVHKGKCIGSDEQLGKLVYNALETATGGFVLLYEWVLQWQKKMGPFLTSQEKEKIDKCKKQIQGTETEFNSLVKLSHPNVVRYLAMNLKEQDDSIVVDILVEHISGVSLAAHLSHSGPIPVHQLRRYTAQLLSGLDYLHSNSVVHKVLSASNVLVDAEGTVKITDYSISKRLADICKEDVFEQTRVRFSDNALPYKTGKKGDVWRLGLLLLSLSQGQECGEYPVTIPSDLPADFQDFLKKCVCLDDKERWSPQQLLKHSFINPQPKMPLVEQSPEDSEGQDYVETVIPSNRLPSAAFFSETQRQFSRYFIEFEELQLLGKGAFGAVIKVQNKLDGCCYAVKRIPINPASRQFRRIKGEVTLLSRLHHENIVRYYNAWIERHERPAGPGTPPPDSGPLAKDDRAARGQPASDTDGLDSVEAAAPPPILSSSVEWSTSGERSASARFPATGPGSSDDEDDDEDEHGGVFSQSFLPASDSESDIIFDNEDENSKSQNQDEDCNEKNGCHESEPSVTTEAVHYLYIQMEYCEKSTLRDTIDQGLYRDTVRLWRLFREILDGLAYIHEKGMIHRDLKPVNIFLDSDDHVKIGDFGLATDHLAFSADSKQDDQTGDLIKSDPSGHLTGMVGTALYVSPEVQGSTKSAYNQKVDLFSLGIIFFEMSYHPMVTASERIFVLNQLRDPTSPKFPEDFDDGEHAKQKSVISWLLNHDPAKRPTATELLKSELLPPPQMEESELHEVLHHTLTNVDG

SMILES | IN-GCN2 interaction (%) | other results
N#Cc1cn([C@@H]2O[C@H](CO)[C@@H](O)[C@H]2O)c2ncnc(N)c12 [NSC63701] | – | IN-GCN2 interaction (%) (listed as 63701): 116.97%
CC[C@H]1OC(=O)[C@H](C)[C@@H](OC2CC(C)(OC)C(O)C(C)O2)[C@H](C)[C@@H](OC2OC(C)CC(N(C)C)C2OC(=O)CCC2CCCC2)[C@](C)(O)C[C@@H](C)C(=O)[C@H](C)[C@@H](O)[C@]1(C)O (some centres unmarked) [NSC63946] | 43.14 | –
CC(C)[C@]12CC(=O)[C@@H](C)[C@H]1C2 [NSC67392] | 80.58 | –
CC[C@]1(O)C[C@H]2CN(CCc3c([nH]c4ccccc34)[C@@](C(=O)OC)(c3cc4c(cc3OC)N(C=O)[C@H]3[C@@](O)(C(=O)OC)[C@H](OC(C)=O)[C@]5(CC)C=CCN6CC[C@]43[C@@H]65)C2)C1 [NSC67574] | 113.01 | –
COc1ccc2[nH]c3c(C)c4ccncc4c(C)c3c2c1 [NSC69187] | 42.76 | –
CC1=C(O)C(=O)C=C2C1=CC=C1[C@@]2(C)CC[C@@]2(C)[C@@H]3C[C@](C)(C(=O)O)CC[C@]3(C)CC[C@]12C [NSC70931] | 100.77 | –
Cc1c2ccncc2c(C)c2c1[nH]c1ccccc12 [NSC71795] | 107.18 | –
COC(=O)[C@@H]1[C@H]2C[C@@H]3c4[nH]c5ccccc5c4CCN3C[C@@H]2CC[C@@H]1O [NSC72116] | 99.30 | –
COC(=O)[C@H]1[C@H]2C[C@@H]3c4[nH]c5ccccc5c4CCN3C[C@H]2C[C@@H](OC(=O)c2cc(OC)c(OC)c(OC)c2)[C@@H]1OC [NSC72138] | 30.11 | –
COC(=O)C1=COC(C)C2CN3CCc4c([nH]c5cc(OC)c(OC)cc45)C3CC12.O=C(O)CC(O)(CC(=O)O)C(=O)O (centres unmarked) [NSC72715] | 63.54 | –
C[N+]1([O-])[C@@H]2CC[C@H]1CC(OC(=O)C(CO)c1ccccc1)C2 (some centres unmarked) [NSC72861] | 92.58 | –
COc1ccc2c(c1)[C@@]13CCN4CC5=CCO[C@H]6CC(=O)N2[C@H]1[C@H]6[C@H]5C[C@H]43 [NSC72862] | 85.38 | –
COc1cc2c(cc1OC)C13CCN4CC5CCOC6CC(=O)N2C1C6C5CC43 (centres unmarked) [NSC72917] | 90.85 | –
N=C(N)CCNC(=O)C1CCC(N)=N1 (centres unmarked) [NSC72942] | 100.21 | –
COc1cc(OC)c(C(=O)/C=C/c2ccc(OC)c(OC)c2)c(OC)c1 [NSC75527] | 89.20 | –
COc1ccc2c(=O)oc3c(OC)cc(CCN(C)C)c4c(=O)oc1c2c34 [NSC76022] | – | AlphaLISA signal in dose-response (at 33 µM): 120%; AlphaLISA signal in dose-response (at 100 µM): 200%
CC[C@@H](O)C[C@H]1CCC[C@@]2(C[C@@H]3OC(=O)/C=C/[C@@](C)(O)[C@@H](O)[C@H](C)[C@@H](O)[C@H](OC4CCC(N(C)C)C(C)O4)[C@@H](O)[C@](C)(O)CCCCC/C=C/[C@@H]4CC(C)(C)O[C@@]4(O)C[C@H](O2)[C@H]3C)O1 (some centres unmarked) [NSC76627] | 52.50 | –
CC1=C[C@H](O)[C@@H](O)[C@]2(C)[C@H]3[C@@]4(O)OC[C@@]35[C@@H](C[C@@H]12)OC(=O)C[C@H]5[C@@H](C)[C@H]4O [NSC79404] | 87.44 | –
COc1ccc2c3c([nH]c2c1)[C@H]1C[C@H]2[C@H](C[C@@H](O)[C@H](OC)[C@H]2C(=O)O)CN1CC3 [NSC81463] | 97.85 | –
CC1(C)Oc2cc3oc(=O)ccc3c3c2C2C1CCC(C)(O3)C2O (centres unmarked) [NSC83433] | 78.75 | –
COc1c2c(c3c(c1CCC(=O)O)OC(C)(C)C=C3)OC(C)(C)C=C2 [NSC83436] | 100.62 | –
C[C@]12CCC(=O)[C@](C)(CO)[C@@H]1CC[C@@]13C[C@@H](CC[C@@H]12)[C@@H](C(=O)O)C3 [NSC83439] | 107.59 | –
C=C1C(=O)O[C@@H]2[C@H]1CC[C@H](C)[C@@H]1C=CC(=O)[C@@]21C [NSC85235] | 40.36 | –

SMILES | IN-GCN2 interaction (%) | other results
C=C1C(=O)O[C@@H]2C[C@@H](C)[C@@H]3C=CC(=O)[C@@]3(C)[C@@H](O)[C@H]12 [NSC85236] | 117.15 | –
C=C1C(=O)O[C@@H]2[C@H]1CC[C@H](C)[C@]1(O)C=CC(=O)[C@@]21C [NSC85239] | 120.23 | –
CN(N=O)C(=O)N[C@@H](C=O)[C@@H](O)[C@H](O)[C@H](O)CO [NSC85998] | 75.18 | –
COc1cc(C)c2c(c1C=O)Oc1c(c(C)c(O)c3c1C(O)OC3=O)OC2=O (centres unmarked) [NSC87511] | 159.91 | –
CC1=C(O)C(=O)C(C2=C(O)C(=O)C(C)=C(O)C2=O)=C(O)C1=O [NSC88466] | 52.93 | –
C[C@H]1CCC/C=C/[C@@H]2C[C@H](O)C[C@H]2[C@H](O)/C=C/C(=O)O1 [NSC89671] | 129.13 | –
CC(C)[C@@](O)(C(=O)OCC1=CCN2CC[C@H](O)[C@@H]12)[C@H](C)O [NSC89937] | 65.06 | –
CC[C@]12CN3CCc4c([nH]c5ccccc45)[C@@](C(=O)OC)(c4cc5c(cc4OC)N(C)[C@H]4[C@@](O)(C(=O)OC)[C@H](OC(C)=O)[C@]6(CC)C=CCN7CC[C@]54[C@@H]76)C[C@@H](C3)[C@H]1O2 [NSC90636] | 49.62 | –
O=C1C=C([C@@H]2O[C@H](CO)[C@@H](O)[C@H]2O)C(=O)N1 [NSC93047] | 117.57 | –
C[C@]12CC[C@H]3[C@@H](CC[C@]4(O)C[C@@H](O)CC[C@]34/C=N/O)[C@@]1(O)CC[C@@H]2C1=COC(=O)C1 [NSC93373] | 116.21 | –
COc1cc2c3cc1Oc1c(O)c(OC)cc4c1[C@H](Cc1ccc(cc1)Oc1cc(ccc1O)C[C@H]3N(C)CC2)N(C)CC4 [NSC93674] | 63.45 | –
CC[C@@]1(O)C(=O)OCc2c1cc1n(c2=O)Cc2cc3ccccc3nc2-1 [NSC94600] | – | IN-GCN2 interaction (%) (listed as 94600): 48.96%
C[C@H]1O[C@@H](O[C@H]2[C@@H](O)C[C@H](O[C@H]3[C@@H](O)C[C@H](O[C@H]4CC[C@@]5(C)[C@H](CC[C@@H]6[C@@H]5CC[C@]5(C)[C@@H](C7=CC(=O)OC7)[C@@H](O)C[C@]65O)C4)O[C@@H]3C)O[C@@H]2C)C[C@H](O)[C@@H]1O [NSC95099] | 127.68 | –
CC(=O)OC1CCC2(C)C(=CCC3C2CCC2(C)C3CC3OC4(CCC(C)CN4)C(C)C32)C1 (centres unmarked) [NSC96021] | 132.69 | –
Cc1cc2nc3[nH]c(=O)[nH]c(=O)c3nc2cc1C [NSC96911] | 89.81 | –
O=C1CC=C2C3CC4N(CCC45c4ccccc4N1C25)C/C3=C\CO (centres unmarked) [NSC99791] | 109.54 | –
O=C1C[C@@H]2OCC=C3CN4CC[C@]56c7ccccc7N1[C@H]5[C@H]2[C@H]3C[C@]46O [NSC99792] | 109.08 | –
COc1cc2c(cc1OC)[C@@]13CCN4CC5=CCO[C@H]6CC(=O)N2[C@H]1[C@H]6[C@H]5C[C@]43O [NSC99794] | 103.59 | –
Oc1ccc(Cc2nccc3cc(O)c(O)cc23)cc1O [NSC99799] | 58.53 | –
N#Cc1cn([C@@H]2O[C@H](CO)[C@@H](O)[C@H]2O)c2ncnc(N)c12 [NSC99843] | – | IN-GCN2 interaction (%) (listed as 99843): 116.98%
C[C@H]1O[C@H](OC2[C@@H](O)[C@@H](O)C(O)[C@H](O)[C@H]2O)[C@@H](N)C[C@@H]1N=C(N)C(=O)O (some centres unmarked) [NSC100858] | 98.15 | –
CC[C@@]1(O)C(=O)OCc2c1cc1n(c2=O)Cc2cc3ccccc3nc2-1 [NSC100880] | – | IN-GCN2 interaction (%) (listed as 100880): 95.24%
Nc1ncn([C@@H]2O[C@H](CO)[C@@H](O)[C@H]2O)c(=O)n1 [NSC102816] | 106.78 | –

From paper PMC12390684 (Viruses, 2025)
